Assay [1] has as its system Carcinoma cell lines, MCF-7, HCT 11 6, A549 and SNU-71. The assay can be described thus: MTT assay, induction of apoptosis of cancer cells. It is filed as cell-based. Conditions: cancer cells treated for 18 hrs. On the procedure: Carcinoma cell lines, MCF-7, HCT 11 6, A549 and SNU-71, were cultured in RPMI 1640 medium supplemented with 10% FBS and 100 U/ml penicillin/streptomycin in a humidified 5% CO2 incubator (Gibco-BRL, UK) at 37° C. The cultured cancer cells were treated for 18 hrs with HIV-1 Tat(48-60)-p53 TAD(50-54), an alanine-substituted peptide of SEQ ID NO. 7 and a trytophane-substituted peptide of SEQ ID NO. 11. Then, induction of apoptosis of cancer cells was determined by an MTT assay using the tetrazolium salt, 3-(4,5-dimethylthiazol-2-yl)-2,5-diphenyltetrazolium bromide (MTT). In the MTT assay, after the cancer cells were incubated for 2 hrs in RPMI 1640 medium supplemented with 10% FBS and 0.5 mg/ml MTT, the medium was removed, and 100 μl of DMSO was added.
Four carcinoma cell lines were treated for 18 hrs with HIV-1 Tat(48-60)-p53 TAD(50-54), which was prepared by linking a cell permeable peptide HIV-1 Tat(48-60) consisting of amino acid residues 48-60 of the HIV-1 Tat protein of SEQ ID NO. 22 to the N-terminal end of p53 TAD(50-54), and alanine-substituted and trytophane-substituted peptides thereof. Then, the induction of apoptosis of cancer cells was determined by an MTT assay, and the cancer cells were microscopically observed.

For another assay, the target named is T1, mdm2(3-109) (Homo sapiens, UniProt Q00987).
T1 construct: made in house; host or cells: E. coli BL21(DE3), pLM1 vector
The assay can be described thus: Chemical shift perturbation experiment (15N-1H HSQC NMR titration of 15N-mdm2(3-109) with p53 TAD or fragment peptides). The class given is binding. Conditions: 0.2 mM 15N-mdm2(3-109), 25° C.; for binding affinity to mdm2 as indicated by chemical shift perturbation: 15N-1H HSQC titration. As for the experimental part:
All NMR data were measured using a Varian Unity INOVA 600 MHz NMR spectrometer at 5° C. and 25° C. ^15N—^1H HSQC (heteronuclear single quantum coherence spectroscopy) spectra were collected with spectral widths of 8000 Hz in the ^1H dimension and 1800 Hz in the ^15N dimension, and with 1024 data points in the t2 domain and 256 data points in the t1 domain.
Also, ^15N—^1H HSQC spectra were collected for the ^15N-labeled mdm2(3-109) protein, dissolved in a buffer solution of 25 mM Tris HCl (pH 7.5), 150 mM NaCl, 2 mM DTT, 0.1 mM PMSF, 0.1 mM EDTA, 0.1 mM benzamidine and 0.02% NaN3, at 0.2 mM of ^15N-mdm2(3-109) and 25° C.
First, HSQC spectra of ^15N-mdm2(3-109) in a free state were collected (FIG. 4). […] Chemical shift assignments of mdm2(3-109) in a free and bound states were performed using 3D NMR experiments, HNCA, HNCOCA, ^15N-edited TOCSY and ^15N-edited NOESY spectrum analysis.
2D ^15N—^1H HSQC spectra were collected for the free (unbound) form of purified ^15N-labeled mdm2(3-109).

The source of these data is patent US8598127B2, “Peptides for inhibiting MDM2 function” (Korea Research Institute of Bioscience & Biotechnology, priority 2004, dated 2013).

Where no end group is shown, it is not given here.

On to DIEQWF-NH2 [p53 TAD(49-54), DIEQWF], for which, in assay [1], the “effect on apoptosis induction in cancer cells” value is reported as “effectively induces apoptosis”.
The same measure, in the same setting: as for DAEQAA, the entry is “unable to induce apoptosis in cancer cells”.
With DWEQWW, in assay [1], the “effect on apoptosis induction in cancer cells” value is given as “greatly higher activity in inducing apoptosis than the native DIEQWF”.
Turning to “DVEQVV (DVEQVV-NH2) [Val-substituted peptide having I50V/W53V/F54V substitutions relative to the native p53(49-54) peptide]”, in the assay with mdm2(3-109), the “binding affinity to mdm2 as indicated by chemical shift perturbation” value is “low binding affinity to mdm2”. Moreover, the “changes in chemical shift of 15N-mdm2(3-109) after addition of the peptide” value in the assay with mdm2(3-109) (15N-1H HSQC) is “small change in chemical shift”.
Take “p53 TAD(1-73): recombinant p53 TAD domain corresponding to residues 1-73 of the TAD of human p53”: the “binding affinity to mdm2 as indicated by chemical shift perturbation” value with mdm2(3-109) was “high affinity”.
